Test results as given in PubChem BioAssay (NCI).
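Cultured in 96-well plates, cells were exposed to test compound for 48 hours across five concentrations. TGI is the concentration that stops growth completely.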

Legend:
Assay in all cases: NCI tumour cell line growth inhibition, 48 h
BT-549 breast = tested on: BT-549 breast
HCT-116 colon = tested on: HCT-116 colon
IGROV1 ovarian = tested on: IGROV1 ovarian
MCF7 breast = tested on: MCF7 breast
MDA-MB-231 breast = tested on: MDA-MB-231 breast
MDA-N = tested on: MDA-N
OVCAR-5 ovarian = tested on: OVCAR-5 ovarian
PC-3 prostate = tested on: PC-3 prostate
RXF 393 renal = tested on: RXF 393 renal
SK-MEL-2 melanoma = tested on: SK-MEL-2 melanoma
SNB-19 CNS = tested on: SNB-19 CNS
UACC-257 melanoma = tested on: UACC-257 melanoma

SMILES | TGI (BT-549 breast) | TGI (HCT-116 colon) | TGI (IGROV1 ovarian) | TGI (MCF7 breast) | TGI (MDA-MB-231 breast) | TGI (MDA-N) | TGI (OVCAR-5 ovarian) | TGI (PC-3 prostate) | TGI (RXF 393 renal) | TGI (SK-MEL-2 melanoma) | TGI (SNB-19 CNS) | TGI (UACC-257 melanoma)
CC(=N\N)/C(C)=N/N=C(C)/C(C)=N/N | > 100 µM | > 100 µM | > 100 µM | > 100 µM | > 100 µM | > 100 µM | > 100 µM | > 100 µM | > 100 µM | > 100 µM | > 100 µM | > 100 µM
COC(CN(C(C)=O)C1CCC2(SCCS2)c2[nH]c3ccccc3c21)OC (stereo unspecified) | > 100 µM | > 100 µM | > 100 µM | > 100 µM | > 100 µM | > 100 µM | > 100 µM | > 100 µM | > 100 µM | > 100 µM | > 100 µM | 3.36 µM
COc1ccc(-n2[nH]nc(C(N)=O)c2=O)cc1 | > 100 µM | > 100 µM | > 100 µM | > 100 µM | > 100 µM | > 100 µM | > 100 µM | > 100 µM | > 100 µM | > 100 µM | > 100 µM | > 100 µM
O=C(O)C(O)C(O)C(=O)O (stereo unspecified) | > 100 µM | > 100 µM | > 100 µM | > 100 µM | > 100 µM | > 100 µM | > 100 µM | > 100 µM | > 100 µM | > 100 µM | > 100 µM | > 100 µM
C=CCC1CC(n2cc(C)c(=O)[nH]c2=O)OC1CO[Si](C)(C)C(C)(C)C (stereo unspecified) | 29.6 µM | 24.6 µM | 23.4 µM | 29.1 µM | 28.9 µM | 27.4 µM | 31.7 µM | 25.1 µM | 15.9 µM | 32.8 µM | 30.2 µM | 33.8 µM
O=C1c2cc(Cl)ccc2NC(=NC2CCCC2)C2CSCN12 (stereo unspecified) | > 100 µM | > 100 µM | > 100 µM | > 100 µM | > 100 µM | > 100 µM | > 100 µM | > 100 µM | > 100 µM | > 100 µM | > 100 µM | > 100 µM
CC(C)(C)OC(=O)NC1CC2(C=C(Br)C(=O)C(Br)=C2)OC1=O (stereo unspecified) | 30.3 µM | 9.21 µM | 31.2 µM | 31.6 µM | 32.6 µM | 15.3 µM | 35.1 µM | 27.3 µM | 11.8 µM | 32 µM | 38.6 µM | 13 µM
Cc1ccccc1OC(C)C(=O)NN1C(=O)CSC1c1ccc(Cl)cc1 (stereo unspecified) | 98.9 µM | > 95.5 µM | > 100 µM | > 100 µM | 86 µM | > 100 µM | > 100 µM | > 100 µM | > 86.9 µM | > 100 µM | > 100 µM | > 100 µM
NC(=O)N/N=C(/CC1C(=O)Oc2ccccc21)c1ccccc1O (stereo unspecified) | > 100 µM | > 100 µM | > 100 µM | > 100 µM | > 100 µM | > 100 µM | > 100 µM | > 100 µM | > 100 µM | > 100 µM | > 100 µM | > 100 µM
CC(NC(=O)NC(C)(C)C)NC(=O)C(N)CC(=O)O (stereo unspecified) | > 100 µM | > 100 µM | > 100 µM | > 100 µM | > 100 µM | > 100 µM | > 100 µM | > 100 µM | > 100 µM | > 100 µM | > 100 µM | > 100 µM
Nc1nc(Cl)c(N)c(NCC2(CO)CC2)n1 | > 100 µM | > 100 µM | > 100 µM | > 100 µM | > 100 µM | > 100 µM | > 100 µM | > 100 µM | > 100 µM | > 100 µM | > 100 µM | > 100 µM
O=C(O)CCS/C(=C\C(SCCC(=O)O)c1ccc(Cl)cc1)c1ccc(Cl)cc1 (stereo unspecified) | 87.5 µM | 57.5 µM | > 100 µM | 60.9 µM | > 100 µM | > 100 µM | > 100 µM | > 100 µM | > 100 µM | 74.4 µM | > 100 µM | > 100 µM
C#C/C=C\CCCC/C=C\C#CC#CCCCC#CC#C[C@H](COS(=O)(=O)O)OS(=O)(=O)O | > 100 µM | > 100 µM | > 100 µM | > 100 µM | > 100 µM | > 100 µM | > 100 µM | > 100 µM | – | > 100 µM | > 100 µM | > 100 µM
COc1c(/C=C/C(C)(C)O)cc(C2CC(=O)c3c(O)cc(O)cc3O2)cc1CC=C(C)C (stereo unspecified) | 15.8 µM | 18.4 µM | – | 15.3 µM | 15.1 µM | 20.5 µM | 16.5 µM | 16.3 µM | 15.3 µM | 15.6 µM | 18.6 µM | 15.9 µM
